Source: the supplement of paper PMC10307832

Experiments:
Assay in all cases: relative viability (nuclei count vs DMSO), 5 days (fraction); higher = more cells survive
Carfilzomib + Navitoclax = compound: CC(C)C[C@H](NC(=O)[C@H](CCc1ccccc1)NC(=O)CN1CCOCC1)C(=O)N[C@@H](Cc1ccccc1)C(=O)N[C@@H](CC(C)C)C(=O)[C@@]1(C)CO1 [Carfilzomib] + CC1(C)CCC(c2ccc(Cl)cc2)=C(CN2CCN(c3ccc(C(=O)NS(=O)(=O)c4ccc(N[C@H](CCN5CCOCC5)CSc5ccccc5)c(S(=O)(=O)C(F)(F)F)c4)cc3)CC2)C1 [Navitoclax] (partner 0.5 µM)
Summary of the method: (§1)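 A single step with final 0.05% Triton X-100, 1% formaldehyde and 1 ug/ml Hoechst fixed the cells and stained nuclei 5 days after treatment. Lung cancer cell lines in 1536-well plates had been treated by pin tool the day after seeding with one drug alone or a fixed anchor-drug dose plus five library-drug doses (not always all listed) in √10 steps, and nuclei were counted on 4× images. Relative viability is the ratio of nuclei in treated wells to nuclei in vehicle wells, taken as the median of duplicate plates.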

Crizotinib + Bortezomib = compound: C[C@@H](Oc1cc(-c2cnn(C3CCNCC3)c2)cnc1N)c1c(Cl)ccc(F)c1Cl [Crizotinib] + CC(C)C[C@H](NC(=O)[C@H](Cc1ccccc1)NC(=O)c1cnccn1)B(O)O [Bortezomib] (partner 0.002 µM)
Summary of the method: as §1

Crizotinib + AZD7762 = compound: C[C@@H](Oc1cc(-c2cnn(C3CCNCC3)c2)cnc1N)c1c(Cl)ccc(F)c1Cl [Crizotinib] + NC(=O)Nc1cc(-c2cccc(F)c2)sc1C(=O)N[C@H]1CCCNC1 [AZD7762] (partner 0.2 µM)
Summary of the method: as §1

Olaparib + Lapatinib = compound: O=C(c1cc(Cc2n[nH]c(=O)c3ccccc23)ccc1F)N1CCN(C(=O)C2CC2)CC1 [Olaparib] + CS(=O)(=O)CCNCc1ccc(-c2ccc3ncnc(Nc4ccc(OCc5cccc(F)c5)c(Cl)c4)c3c2)o1 [Lapatinib] (partner 2 µM)
Summary of the method: as §1

Cell Line | relative viability (Carfilzomib + Navitoclax; first compound 0.001 µM) | relative viability (Carfilzomib + Navitoclax; first compound 0.003162 µM) | relative viability (Carfilzomib + Navitoclax; first compound 0.01 µM) | relative viability (Carfilzomib + Navitoclax; first compound 0.03162 µM) | relative viability (Carfilzomib + Navitoclax; first compound 0.1 µM) | relative viability (Crizotinib + Bortezomib; first compound 0.01 µM) | relative viability (Crizotinib + Bortezomib; first compound 0.03162 µM) | relative viability (Crizotinib + Bortezomib; first compound 0.1 µM) | relative viability (Crizotinib + Bortezomib; first compound 1 µM) | relative viability (Crizotinib + AZD7762; first compound 0.01 µM) | relative viability (Crizotinib + AZD7762; first compound 0.03162 µM) | relative viability (Crizotinib + AZD7762; first compound 0.1 µM) | relative viability (Crizotinib + AZD7762; first compound 1 µM) | relative viability (Olaparib + Lapatinib; first compound 0.08 µM) | relative viability (Olaparib + Lapatinib; first compound 0.253 µM) | relative viability (Olaparib + Lapatinib; first compound 2.53 µM) | relative viability (Olaparib + Lapatinib; first compound 8 µM) | relative viability (Crizotinib + Bortezomib; first compound 0.3162 µM) | relative viability (Crizotinib + AZD7762; first compound 0.3162 µM)
HCC-366 | 1.02 | 0.98 | 0.956 | 1.03 | 0.0374 | 1.01 | 1.04 | 1.02 | 1.15 | 0.239 | 0.324 | 0.309 | 0.289 | 1.06 | 0.884 | 0.77 | 0.417 | – | –
IA-LM | 0.851 | 0.815 | 0.879 | 0.0554 | 0.01 | 0.848 | 0.754 | 0.735 | 0.704 | – | – | – | – | 1.13 | 0.926 | 0.746 | 0.602 | 0.744 | –
LCLC-103H | – | – | – | – | – | 1.06 | 1.04 | 1.11 | 1.16 | 0.798 | 0.78 | 0.877 | 0.804 | – | – | – | – | 1.09 | 0.839
LK-2 | 0.845 | 0.907 | 0.879 | 0.209 | 0.175 | – | – | – | – | 0.533 | 0.293 | 0.341 | 0.398 | 0.985 | 0.935 | 0.92 | 0.941 | – | 0.204
NCI-H358 | – | – | – | – | – | – | – | – | – | – | 0.533 | 0.469 | 0.492 | 0.388 | 0.434 | 0.44 | 0.426 | – | 0.458
NCI-H441 | 0.534 | 0.571 | 0.208 | 0.144 | 0.145 | 0.689 | 0.419 | 0.764 | 0.355 | 0.998 | 1.03 | 1.12 | 1.21 | – | – | – | – | – | 1.09
NCI-H520 | 1.04 | 1.37 | 0.797 | 0.183 | 0.168 | 0.492 | 0.5 | 0.586 | 0.331 | – | – | – | – | 1.08 | 0.795 | 0.725 | 0.525 | 0.522 | –
NCI-H522 | – | – | – | – | – | – | – | – | – | 0.852 | 0.792 | 0.752 | 0.846 | – | – | – | – | – | 0.908
NCI-H650 | – | – | – | – | – | 0.769 | 0.655 | 0.806 | 0.671 | 1.03 | 0.979 | 0.815 | 0.945 | 1.05 | 0.834 | 0.903 | 0.742 | 0.613 | –
NCI-H661 | – | – | – | – | – | 0.759 | 0.768 | 0.72 | 0.817 | – | – | – | – | 0.638 | 0.443 | 0.426 | 0.543 | 0.777 | –
NCI-H1299 | 1.08 | 1.05 | 1.03 | 0.887 | 0.195 | 1.04 | 1.07 | 1 | 0.996 | – | – | – | – | 1.01 | 0.927 | 0.949 | 0.963 | 1.02 | –
NCI-H1395 | 0.964 | 1.24 | 0.995 | 0.481 | 0.347 | – | – | – | – | 0.381 | 0.372 | 0.429 | 0.397 | 0.98 | 0.661 | 0.839 | 0.435 | – | 0.43
NCI-H1563 | – | – | – | – | – | 0.744 | 0.859 | 0.857 | 0.832 | – | – | – | – | 0.975 | 0.999 | 0.992 | 0.92 | 0.779 | –
